Where “and” joins values, the source holds several entries; their conditions need not be identical. Identical values can stand only once.
What was measured:
[1] = test system: electrically evoked release of [^3H]-NA; assay: electrically evoked release of [^3H]-NA from rat brain slices; type: cell-based; details: quasi-physiological release
Source text: (§1) Note that the deviations indicate confidence intervals (CI95), not standard errors. In this model, GBP and its lactam seem equipotent. GBP and GBP-L are ineffective on the quasi-physiological, electrically evoked release of [^3H]-NA from both rat and human brain slices (not shown).

[2] = test system: Mice transgenic for exon 1 of the human HD gene (line R 6/2); assay: mouse model of Huntington's disease, walking on a balance beam; type: in vivo
Source text: (§2) Mice transgenic for exon 1 of the human HD gene (line R 6/2), carrying CAGn=115-156 expansions, develop pronounced neuronal intranuclear inclusions, containing the proteins huntington and ubiquitin prior to the characteristic neurological phenotype with bradykinesia and seizures corresponding to the juvenile type of HD (Davies et al. 1997). The life time of these mice is up to 17 weeks. It was investigated whether gabapentin (GBP) and its derivative gabapentin-lactam (GBP-L, Jehle et al. 2000), may exert neuroprotective effects by using a battery of behavioral tests selected to measure motor aspects of fore-and hindlimb coordination and balance. In a first series of experiments mice were treated with GBP-L (100 mg/kg*day, 8 mice) and vehicle only (B mice) from the 6th week of their life until death using Alzet pumps implanted subcutaneously and delivering the test compounds systemically and continuously for up to four weeks. Empty Alzet pumps were repeatedly replaced. Animals were tested twice weekly by walking on a balance beam (width: 5 and 14 mm, Carter et al. 1999) up to week 15.5. A second series of experiments involved mice again treated with GBP-L (100 mg/kg*clay, 7 mice) and mice treated with GBP (100 mg/kg*day, 8 mice) from the 6th week of their life until death with week 17 being the maximum endpoint. In addition, immunohistochemical studies, using a monoclonal mouse antibody raised against ubiquitin, were done to analyse areas of ubiquitinated nuclear inclusions in three brain regions (hippocampus, neocortex and striatum) in a blinded fashion in order to compare mice treated with GBP-L or GBP.
This effect (E), as measured by the time necessary to pass the balance beam, was evaluated in each single mouse according to the function E=be^a time, yielding individual graphs with parameter estimates for a and b. The area under the curve, representing the motor ability of an individual mouse, was weighted by the life of this mouse. For instance, the area under the curve of a mouse which died at week 12.5 was divided by the ratio 12.5/15.5 in order to allow for possibly different life times of the mice.
Note that the observation period of the second series of experiments was 17 instead of 15.5 weeks only in the first set. Accordingly, the weighting by the life time now used the divisor 17 Instead of 15.5.

[3] = test system: electrically evoked release of [^3H]-NA; assay: electrically evoked release of [^3H]-NA from human brain slices; type: cell-based; details: quasi-physiological release
Source text: as §1

[4] = test system: ischemia-induced [^3H]-Glu release; assay: in vitro ischemia model: ischemia-induced [^3H]-Glu release from [^3H]-Gln-loaded hippocampal slices; type: cell-based, rat
Protocol: Rat hippocampus slices 350 μm thick were incubated in 3 ml of medium at 37° C. for 60 minutes. The medium contained 2 μM [^3H]-Gln to label the endogenous Gln pool. The slices then synthesized Glu. The slices were washed and then exposed to superfusion with a buffer for 50 minutes. At 5-minute intervals, [^3H]-Glu was extracted by anion exchange chromatography from a total of 15 superfusion samples and was measured by liquid scintillation counting. The fractional rates of [^3H]-Glu release were calculated from the [^3H]-Glu extracted from the superfusion samples and from the tissue slices after the superfusion.
The model of endogenously produced [^3H]-Glu was likewise used to generate ischemic conditions in vitro. To make a slice “quasi ischemic”, oxygen and glucose were replaced by nitrogen and sucrose during the superfusion. Sucrose was used in place of […] glucose in order to maintain the osmolarity of the superfusion fluid. It is known that sucrose cannot be cleaved in vitro to glucose and fructose. Unlike the tests in which the [^3H]-Glu release was induced electrically, and in order to simulate an ischemia as well as possible, the [^3H]-Glu release was carried out during the incubation and superfusion at 37° C.
Slices of 350 μm thickness were incubated at 37° C. for 60 min in 3 ml medium containing 2 μM [^3H]-Gln in order to label endogenous Gln pools. These slices subsequently were synthesizing Glu. The slices were washed and then superfused for 50 min with buffer. [^3H]-Glu was extracted from 15 5-min-superfusion samples and from the slices by anion-exchange chromatography and measured by liquid scintillation counting. Fractional rates of [^3H]-Glu release were calculated from extracted [^3H]-Glu in the superfusion samples and in the tissue slices obtained after superfusion.
To reproduce in vitro ischemic conditions the model of endogenously formed [^3H]-Glu was also used. To make a slice “quasi-ischemic”, oxygen was replaced by nitrogen and glucose was replaced by sucrose during superfusion. Sucrose was used instead of glucose in order to maintain the osmolarity of the superfusion fluid without being cleaved into glucose and fructose in vitro. At variance to the experiments on electrically evoked [^3H]-Glu release and in order to mimic ischemia as close as possible the experiments on ischemia-induced [^3H]-Glu release were performed at 37° C. throughout incubation and superfusion.
To assess the potency of glibenclamide concentration-inhibition curves of GBP-L on ischemia-induced [^3H]-Glu efflux were obtained in the absence and presence of 0.1 μM glibenclamide (see Jehle et al. 2000).

[5] = test system: neuronal intranuclear inclusions; assay: mouse model of Huntington's disease, immunohistochemistry of ubiquitinated neuronal intranuclear inclusions; type: in vivo; details: for mean hippocampal areas of neuronal intranuclear inclusions / mean neocortical areas of neuronal intranuclear inclusions / mean striatal areas of neuronal intranuclear inclusions: per individual mouse, 100 mg/kg*day, frozen brain sections, 100 mg/kg
Source text: as §2
Three mice per group were evaluated. The mean regional area of neuronal intranuclear inclusions was calculated (μm^2) for each mouse. These means were compared between regions and between treatment groups.

[6] = second series, 100 mg/kg*day, observation period 17 weeks
[7] = O2 replaced by N2, glucose by sucrose, 37° C., 3 μM PDC

Row | Structure (SMILES) | electrically evoked release of [^3H]-NA (in words) [1] | mean weighted area representing the motor ability on the 5 mm beam [2, 6] | mean weighted area representing the motor ability on the 14 mm beam [2, 6] | electrically evoked release of [^3H]-NA (in words) [3] | diminution of ischemia-induced [^3H]-Glu efflux [4] [%] | mean hippocampal areas of neuronal intranuclear inclusions [5] | mean neocortical areas of neuronal intranuclear inclusions [5] | mean striatal areas of neuronal intranuclear inclusions [5] | motor abilities compared to vehicle animals (in words) ([2]; first series, 100 mg/kg*day) | mean weighted area representing the motor ability on the 5 mm beam ([2]; first series, 100 mg/kg*day s.c. Alzet pumps from 6th week, up to week 15.5, vehicle 44.60) | mean weighted area representing the motor ability on the 14 mm beam ([2]; first series, 100 mg/kg*day, up to week 15.5, vehicle 31.54) | ischemia-induced [^3H]-Glu output (in words) [4, 7] | reduction of ischemia-induced [^3H]-Glu release (area from t=15 min) [4, 7] [%] | area of neuronal intranuclear inclusions in hippocampus, striatum and neocortex compared to GBP mice (in words) ([5]; three mice per group)
1 | NCC1(CC(=O)O)CCCCC1 [GBP, gabapentin, reference compound] | ineffective | 77.33 | 65.71 | ineffective | 35.5 | 8.78 μm^2 and 8.93 μm^2 and 8.26 μm^2 | 5.91 μm^2 and 5.94 μm^2 and 9.60 μm^2 | 6.43 μm^2 and 7.27 μm^2 and 3.84 μm^2 | – | – | – | – | – | –
2 | O=C1CC2(CCCCC2)CN1 [GBP-L, 8-azaspiro[5,4]decan-9-one] | ineffective | 43.75 | 30.46 | ineffective | – | 4.47 μm^2 and 4.01 μm^2 and 3.61 μm^2 | 3.70 μm^2 and 2.96 μm^2 and 2.65 μm^2 | 3.52 μm^2 and 4.20 μm^2 and 3.83 μm^2 | markedly and significantly improved | 26.64 | 17.16 | reduces the neurotoxic [^3H]-Glu output significantly | 42.5 | markedly and significantly reduced

Source: US6984659B2, “2-pyrrolidinone derivatives substituted at position 4 for reducing the extracellular glutamate level” (priority 1997, dated 2006)
